From the supplement of paper PMC10307832

Legend:
Test in all cases: relative viability (nuclei count vs DMSO), 5 days (fraction); higher = more cells survive
[1] = compound: C[As](C)SC[C@H](NC(=O)CC[C@H](N)C(=O)O)C(=O)NCC(=O)O [Darinaparsin] + Cc1cc(Nc2cc(N3CCN(C)CC3)nc(Sc3ccc(NC(=O)C4CC4)cc3)n2)n[nH]1 [Tozasertib] (partner 0.1 µM)
Summary of the method: (§1)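 Relative viability divides the nuclei count in treated wells by that in vehicle wells. Lung cancer cell lines were seeded in 1536-well plates, dosed by pin tool the next day, and fixed and stained after 5 days in one step with final 0.05% Triton X-100, 1% formaldehyde and 1 ug/ml Hoechst. Dosing was a single drug or a fixed anchor-drug dose plus five library-drug doses (not always all listed) in √10 steps, and values are medians of duplicate plates imaged at 4×.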

Darinaparsin + Alpelisib = compound: C[As](C)SC[C@H](NC(=O)CC[C@H](N)C(=O)O)C(=O)NCC(=O)O [Darinaparsin] + Cc1nc(NC(=O)N2CCC[C@H]2C(N)=O)sc1-c1ccnc(C(C)(C)C(F)(F)F)c1 [Alpelisib] (partner 2 µM)
Summary of the method: as §1

QS11 + Navitoclax = compound: C1CC2=C(C1)C=C(C=C2)OC3=NC(=C4C(=N3)N(C=N4)CC5=CC=C(C=C5)C6=CC=CC=C6)N[C@@H](CC7=CC=CC=C7)CO [QS11] + CC1(C)CCC(c2ccc(Cl)cc2)=C(CN2CCN(c3ccc(C(=O)NS(=O)(=O)c4ccc(N[C@H](CCN5CCOCC5)CSc5ccccc5)c(S(=O)(=O)C(F)(F)F)c4)cc3)CC2)C1 [Navitoclax] (partner 0.5 µM)
Summary of the method: as §1

[2] = compound: C[As](C)SC[C@H](NC(=O)CC[C@H](N)C(=O)O)C(=O)NCC(=O)O [Darinaparsin] + CC1(C)CCC(c2ccc(Cl)cc2)=C(CN2CCN(c3ccc(C(=O)NS(=O)(=O)c4ccc(N[C@H](CCN5CCOCC5)CSc5ccccc5)c(S(=O)(=O)C(F)(F)F)c4)cc3)CC2)C1 [Navitoclax] (partner 0.5 µM)
Summary of the method: as §1

Cell Line	relative viability ([1]; first compound 0.08 µM)	relative viability ([1]; first compound 0.8 µM)	relative viability ([1]; first compound 2.53 µM)	relative viability ([1]; first compound 8 µM)	relative viability (Darinaparsin + Alpelisib; first compound 0.08 µM)	relative viability (Darinaparsin + Alpelisib; first compound 0.8 µM)	relative viability (Darinaparsin + Alpelisib; first compound 2.53 µM)	relative viability (Darinaparsin + Alpelisib; first compound 8 µM)	relative viability (QS11 + Navitoclax; first compound 0.08 µM)	relative viability (QS11 + Navitoclax; first compound 0.253 µM)	relative viability (QS11 + Navitoclax; first compound 0.8 µM)	relative viability (QS11 + Navitoclax; first compound 2.53 µM)	relative viability (QS11 + Navitoclax; first compound 8 µM)	relative viability ([2]; first compound 0.08 µM)	relative viability ([2]; first compound 0.8 µM)	relative viability ([2]; first compound 2.53 µM)	relative viability ([2]; first compound 8 µM)
NCI-H2009	0.927	0.682	0.731	0.884	1.25	1.19	1.06	1.16	1.13	1.19	0.972	1.02	0.981	1.35	1.11	1.11	1.06
SK-LU-1	0.402	0.278	0.294	0.316	1.11	0.956	0.797	1.06	0.795	0.871	0.646	0.487	0.479	0.986	0.807	0.671	1.02
RERF-LC-KJ	0.482	0.483	0.447	0.472	0.865	0.917	0.73	0.873	0.996	1.31	0.98	0.896	0.725	1.08	0.92	0.749	1.08
NCI-H322M	0.564	0.464	0.423	0.492	0.89	0.692	0.632	0.787	1.21	1.21	1.22	1.35	1.26	1.25	1.17	1.13	1.33
LK-2	0.203	–	0.177	0.175	1.37	–	1.31	1.42	0.763	0.888	0.975	0.762	1.11	0.968	0.709	0.746	1.07
SK-MES-1	1.08	0.854	0.74	0.968	1.01	0.909	0.63	0.993	1.43	1.25	1.21	1.45	1.37	1.33	1.18	1.17	1.54
NCI-H1299	–	–	–	–	1.09	1.18	0.904	1.18	1.04	1.07	1.03	0.923	0.839	1.03	1.08	1.04	1.1
NCI-H2228	0.217	0.217	0.286	0.235	1.03	0.992	0.735	0.933	0.852	1.1	0.483	0.756	1.29	0.856	0.996	1.02	0.825
NCI-H1792	–	–	–	–	0.684	0.575	0.493	1.03	–	0.744	0.5	0.6	0.479	1.03	0.652	0.393	0.665
LOU-NH91	0.743	0.647	0.666	0.761	0.703	0.718	0.749	0.68	0.626	0.572	–	0.657	0.723	0.699	0.701	0.642	0.604
IA-LM	–	–	–	–	1.02	0.663	1.4	0.965	0.762	0.828	0.69	0.5	0.614	1.15	0.974	0.969	0.739
SW 900	0.677	0.538	0.658	0.555	–	–	–	–	–	–	–	–	–	–	–	–	–
LU99A	0.262	0.295	0.256	0.243	0.592	0.52	0.457	0.606	0.867	0.841	0.937	0.847	0.592	0.77	0.886	0.777	0.944
NCI-H661	0.357	0.351	0.377	0.361	0.632	0.692	0.683	0.668	–	–	–	–	–	–	–	–	–
EBC-1	–	–	–	–	0.802	0.773	0.728	0.958	0.387	0.352	0.374	0.363	0.393	0.4	0.351	0.375	0.352
NCI-H3122	0.446	0.41	0.377	0.417	0.9	0.796	0.735	1.01	1.01	1.06	0.698	1.06	0.817	1.11	1.08	1.06	1.11
LC-2-ad	0.49	0.425	0.329	0.35	0.954	0.832	0.856	1.01	0.407	0.357	0.488	0.335	0.384	0.551	0.324	0.421	0.487
HCC-78	0.449	0.461	0.386	0.491	0.363	0.301	0.358	0.259	0.802	0.797	0.756	0.841	0.818	0.841	0.729	0.842	0.84
SW 1573	0.145	0.2	0.197	0.14	0.744	0.729	0.472	0.832	0.937	0.795	0.9	0.842	0.564	1.23	0.991	1.01	0.992
NCI-H358	0.1	0.102	0.124	0.101	0.922	0.87	0.817	0.994	–	–	–	–	–	–	–	–	–
ChaGo-K-1	0.266	0.206	0.242	0.232	–	–	–	–	–	1.01	1.42	1.66	1.21	1.19	0.905	1.05	0.956
